In paper PMC6516043, “Functional Analysis of the Chemosensory Protein GmolCSP8 From the Oriental Fruit Moth, Grapholita molesta (Busck) (Lepidoptera: Tortricidae)” (Frontiers in Physiology, 2019):
Read-outs that look alike come from different tables or passages of the source.

Key:
rGmolCSP8 [1] = biological target: T1, rGmolCSP8 (Grapholita molesta, UniProt A0A0M4FML8); assay: Fluorescence competitive binding assay (1-NPN displacement), wild-type
Description: The fluorescence spectra were recorded using a fluorescence spectrophotometer (F-4500, Hitachi, Tokyo, Japan) in a 1 cm light path fluorimeter quartz cuvette with 10 nm slits for excitation and 20 nm slits for emission. […] The fluorescent probe N-phenyl-1-naphthylamine (1-NPN) and all putative ligands used in binding assays were dissolved in methanol (HPLC purity grade) to obtain a 1 mM stock solution. The rGmolCSP8 protein was diluted to in 20 mM Tris–HCl to obtain a 2 μM solution, pH 7.4. […] The fluorescent probe was excited at 337 nm and emission spectra were recorded from 370 to 550 nm. […] Binding data were obtained from three replicates assays for each concentration of each tested ligand.

GmolOBP8 = biological target: GmolOBP8; design: method as in Li et al., 2016a,b; conditions: ref Li et al., 2016a,b; cited from earlier work
GmolGOBP2 = biological target: GmolGOBP2; design: method as in Li et al., 2016a,b; conditions: ref Li et al., 2016a,b; cited from earlier work
GmolOBP15 = biological target: GmolOBP15; design: method as in Li et al., 2016a,b; conditions: ref Li et al., 2016a,b; cited from earlier work
rGmolCSP8 [2] = biological target: T1, rGmolCSP8; assay: Effect of pH on the binding affinity of rGmolCSP8
Description: Based on the fluorescent binding assays described above, we further assessed the effects of pH on the binding abilities of GmolCSP8 with strongly bound ligand. The binding affinities of rGmolCSP8 to the representative ligand 1- hexanol were measured at six different pH values (4.0, 5.0, 6.8, 7.4, 8.0, and 8.8) in 20 mM Tris–HCl buffer. pH was adjusted by titrating concentrated hydrochloric acid using a PHS-3E pH meter (Shanghai Precision Scientific Instrument Co., Ltd., Shanghai, China). The binding assays and data processing were performed as described previously.
FIGURE 7 Effects of pH on the binding affinities of rGmolCSP8 with 1-hexanol. The mixture solution of 2 μM rGmolCSP8 protein and 2 μM 1-NPN was titrated with 1 mM 1-hexanol stock solution to final concentrations of 22 μM. All data represent a mean of three independent measurements, and the bars denote mean ± SEM.

GmolCSP8-T27A = GmolCSP8-T27A (Grapholita molesta, UniProt A0A0M4FML8, T42A); assay: biochemical; type: binding; conditions: for Ki: read-out: Ki (μM) T27A, mutant T27A, – = did not displace 50% 1-NPN at ligand up to 24 μM
GmolCSP8-T27A, sequence (A0A0M4FML8 entry or part of it T42A): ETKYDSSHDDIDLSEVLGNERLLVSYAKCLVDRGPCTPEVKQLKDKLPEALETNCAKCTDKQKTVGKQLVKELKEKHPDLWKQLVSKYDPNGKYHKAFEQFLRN
Description: (§1) To determine whether GmolCSP8 is involved in odorant binding, fluorescence competitive binding assays were performed ([Zhong et al., 2012]). The fluorescence spectra were recorded using a fluorescence spectrophotometer (F-4500, Hitachi, Tokyo, Japan) in a 1 cm light path fluorimeter quartz cuvette with 10 nm slits for excitation and 20 nm slits for emission. The selected chemicals are listed in Table 2, and included four sex pheromone components and 34 volatiles from different host plants (peach and pear trees) of G. molesta based on previous investigations ([Natale et al., 2004]; [Lu et al., 2012]; [Najar-Rodriguez et al., 2013b]). The fluorescent probe N-phenyl-1-naphthylamine (1-NPN) and all putative ligands used in binding assays were dissolved in methanol (HPLC purity grade) to obtain a 1 mM stock solution. The rGmolCSP8 protein was diluted to in 20 mM Tris–HCl to obtain a 2 μM solution, pH 7.4. To measure the binding affinity of 1-NPN for GmolCSP8, a 2 μM solution of protein was titrated with aliquots of 1 mM 1-NPN prepared to final concentrations ranging from 1 to 22 μM. The fluorescent probe was excited at 337 nm and emission spectra were recorded from 370 to 550 nm. […] Binding data were obtained from three replicates assays for each concentration of each tested ligand. Dissociation constants (Kd) of protein to 1-NPN were calculated by non-linear regression, using GraphPad Prism 4.00 software (GraphPad Software Inc.). The inhibition constants (Ki) of the competitors were determined using the corresponding IC50 values (concentration of competitor that reduced the initial fluorescence intensity by half) based on the following equation: Ki = [IC50]/(1+[1-NPN]/K1-NPN), where [1-NPN] is the free concentration of 1-NPN and K1-NPN is the dissociation constant of the complex GmolCSP8/1-NPN.
(§2) To verify the four predicted key amino acid sites of GmolCSP8 binding for 1-hexanol, recombinant plasmids for four CSP8 mutants were obtained via site-directed mutagenesis experiments. Specific primers introducing mutation sites of the four key amino acid CSP8 plasmids (GmolCSP8-T27A, GmolCSP8-L30A, GmolCSP8-V40A, and GmolCSP8-L80A) were designed and are listed in Table 1. The four mutants were mutated by using the TaKaRa MutanBEST Kit (TaKaRa, Shiga, Japan) with the pMD®19-T/GmolCSP8 plasmid DNA as template. All plasmids containing mutations were validated by sequencing with five randomly selected single colonies. pMD®19-T plasmids including four CSP8 mutants were digested with Bam HI and Hind III restriction enzymes. Then, the target sequences were ligated into the expression vector pET28a (+) and transformed into BL21 (DE3) competent cells for expression. After sequencing verification, the corresponding rGmolCSP8 mutant proteins were induced and purified, and the binding affinities to 1-hexanol and its analogs were verified via ligand-binding assays according to the method described above.

GmolCSP8-L80A = GmolCSP8-L80A (Grapholita molesta, UniProt A0A0M4FML8, L95A); assay: biochemical; type: binding
GmolCSP8-L80A, sequence (A0A0M4FML8 entry or part of it L95A): as the sequence (A0A0M4FML8 entry or part of it T42A) above, with A27T, L80A counted along it
Description: as §1, §2

GmolCSP8-V40A = GmolCSP8-V40A (Grapholita molesta, UniProt A0A0M4FML8, V55A); assay: biochemical; type: binding
GmolCSP8-V40A, sequence (A0A0M4FML8 entry or part of it V55A): as the sequence (A0A0M4FML8 entry or part of it T42A) above, with A27T, V40A counted along it
Description: as §1, §2

GmolCSP8-L30A = GmolCSP8-L30A (Grapholita molesta, UniProt A0A0M4FML8, L45A); assay: biochemical; type: binding
GmolCSP8-L30A, sequence (A0A0M4FML8 entry or part of it L45A): as the sequence (A0A0M4FML8 entry or part of it T42A) above, with A27T, L30A counted along it
Description: as §1, §2

[3] = 2 μM rGmolCSP8 and 2 μM 1-NPN, 20 mM Tris-HCl pH 7.4, read-out: IC50
[4] = 2 μM rGmolCSP8 and 2 μM 1-NPN, pH 7.4, calculated from IC50, read-out: Ki

T1 sequence (A0A0M4FML8 entry or part of it): as the sequence (A0A0M4FML8 entry or part of it T42A) above, with A27T counted along it

Row | SMILES | IC50 (rGmolCSP8 [1]; [3]) | Ki (rGmolCSP8 [1]; [4]) | binding to rGmolCSP8 (in words) (rGmolCSP8 [1]; wild-type rGmolCSP8, pH 7.4) | also measured
1 | CCCCCCOC(C)=O [Hexyl acetate] | > 24 µM | > 24 µM | – | –
2 | CCCCCCCCC=O [Nonanal] | > 24 µM | > 24 µM | – | –
3 | CCCCCCCCCCCCCCO [1-tetradecanol] | – | – | unable to bind | IC50 (rGmolCSP8 [1]): > 24 µM; Ki (rGmolCSP8 [1]): > 24 µM
4 | CCCCCCCCCCCCO [1-dodecanol] | 13.5 ± 0.83 µM | 12.9 ± 0.56 µM | – | Ki (GmolOBP8): 4.39 µM; Ki (GmolGOBP2): 1.22 µM; binding affinity class (strong/medium/weak) (rGmolCSP8 [1]; wild-type rGmolCSP8, pH 7.4): medium (an IC50 value between 10 and 20 μM indicated that ligands demonstrated medium binding ability to protein); Ki (GmolOBP15): 3.24 µM
5 | CCCCCC=O [Hexanal] | > 24 µM | > 24 µM | cannot bind | –
6 | CCCCCCCC=O [Octanal] | > 24 µM | > 24 µM | – | –
7 | N#Cc1ccccc1 [Benzonitrile] | > 24 µM | > 24 µM | cannot bind | –
8 | CCCCCCO [1-hexanol] | – | – | strongest binding affinities | IC50 (rGmolCSP8 [1]): 2.26 ± 0.34 µM; binding affinity (in words) (rGmolCSP8 [2]; pH 4.0): very weak affinity; effect of pH on binding affinity (in words) (rGmolCSP8 [2]; pH 4.0, 5.0, 6.8, 7.4, 8.0, 8.8 in 20 mM Tris-HCl): higher at pH 6.8–8.0 than at pH 4.0–5.0 and 8.8; binding affinity (in words) (rGmolCSP8 [2]; pH 6.8–8.0): strong binding affinity; IC50 (GmolCSP8-T27A): > 24 µM; binding to mutant T27A (in words) (GmolCSP8-T27A; mutant T27A compared with wild-type): abolished the ability to bind; Ki (GmolCSP8-T27A): > 24 µM; Ki (GmolCSP8-L80A): 1.8 ± 0.15 µM; Ki (GmolCSP8-V40A): 2.67 ± 0.34 µM; Ki (GmolCSP8-L30A): 12.5 ± 1.12 µM; fold decrease in binding vs wild-type (GmolCSP8-L30A; mutant L30A compared with wild-type rGmolCSP8): 6 fold
9 | CCCCCC(=O)OCCCC [Butyl hexanoate] | > 24 µM | > 24 µM | cannot bind | –
10 | C=C/C(C)=C/CCC(=C)C [α-Ocimene] | 18.9 ± 1.29 µM | 17.6 ± 0.81 µM | – | –
11 | CCCCCCCCCCCCCCC [Pentadecane] | > 24 µM | > 24 µM | – | –
12 | CCC/C=C/C=O [(E)-2-hexenal] | > 24 µM | > 24 µM | cannot bind | –
13 | CC(C)CCO [3-methyl-1-butanol] | 6.6 ± 0.45 µM | 6.32 ± 0.52 µM | – | –
14 | CCCCCO [1-pentanol] | 8.79 ± 0.99 µM | 8.18 ± 0.93 µM | – | IC50 (GmolCSP8-T27A): > 24 µM; Ki (GmolCSP8-T27A): > 24 µM; Ki (GmolCSP8-L80A): 6.66 ± 0.64 µM; Ki (GmolCSP8-V40A): 12.4 ± 1.41 µM; binding to mutant L30A (in words) (GmolCSP8-L30A; mutant L30A compared with wild-type): lost its ability to bind; Ki (GmolCSP8-L30A; read-out: Ki (μM) L30A, mutant L30A, – = lost ability to bind): > 24 µM
15 | CCC/C=C/CCCCCCCOC(C)=O [(E)-8-dodecenyl acetate] | > 24 µM | > 24 µM | – | –
16 | CCCCCCC=O [Heptanal] | > 24 µM | > 24 µM | cannot bind | –
17 | CCCCCCCCCCCCCC [Tetradecane] | > 24 µM | > 24 µM | – | –
18 | CCC/C=C\CCCCCCCOC(C)=O [(Z)-8-dodecenyl acetate] | > 24 µM | > 24 µM | – | –
19 | CCCC(=O)OCC [Ethyl butyrate] | > 24 µM | > 24 µM | – | –
